Patent US20160264616A1, “THERAPEUTIC COMPOUNDS AND METHODS” (priority 2015, published 2016)

System: RGS17ΔN:Gαo interaction in HEK293T cells
Assay: RGS localization assay, GFP-RGS17ΔN co-transfected with hGαo in HEK293T cells
Type: cell-based, human
Conditions: for delocalization of RGS17ΔN from the membrane: 100 μM compound
Protocol: HEK293T cells co-transfected with GFP-RGS17FL and human Gαo were treated with UI-5, UI-1590 and […] to determine if the compounds could disrupt the RGS17:Gαo interaction that could drive RGS17 to the membrane. […] To test this hypothesis, we constructed a GFP-RGS17 fusion protein with an N-terminal truncation, removing the cysteine-rich motif. […] As a negative control, we tested a known RGS4 inhibitor (CCG-50014) in this assay against RGS17ΔN (21). […] Finally, to ensure the localization was not due to the GFP tag, pAcGFP vector was co-transfected into HEK293T cells with hGαo. […] Cross-sectional fluorescence intensity analysis was used to quantify the intensity of signal at a cross section of the cell. Average signal at the membrane and in the cytoplasm were calculated and change in signal intensity was assessed between time zero and time final. […] Additionally, the control condition of CCG-50014 was subject to the same analyses as the lead compound.
Twenty four (24) hours prior to plating, assay plates were coated with 30 μl poly-D-lysine per well. Human Embryonic Kidney 293T cells (HEK293T) were plated in to 96 well tissue culture treated glass bottom view plates (Perkin Elmer, Part No. 6005430) at a density of 25K cells per well. 24 hours post seeding, cells were transfected with hGαo in pCDNA 3.1(+), pAcGFPRGS17 FL, pAcGFP RGS17ΔN, empty pAcGFP, hGαo+pAcGFPRGS17 FL, hGαo+pAcGFP RGS17ΔN, or hGαo+empty pAcGFP vector using Lipofectamine 2000 (Life Technologies) as the transfection reagent and according to manufacture protocols. 24 hours post transfection, cell media was removed and replaced with […] serum free, phenol red free DMEM (Life Technologies, Ref No. 31053-028). Cells were then imaged using a Zeiss LSM510 confocal microscope (University of Iowa Central Microscopy Core). Images were analyzed using NIH Image J software and Graphpad Prism 6.
Compounds at 2× final desired concentrations were diluted in serum free, phenol red free DMEM.

SMILES: Cc1ccc(-n2sc(=O)n(Cc3ccc(F)cc3)c2=O)cc1 [CCG-50014, reference compound]
- delocalization of RGS17ΔN from the membrane: No delocalization was observed
- delocalization of RGS17ΔN from the membrane (listed as 50014): did not result in RGS17ΔN delocalization
- change of membrane and cytosolic fluorescence signal (Image J cross-section) (time zero versus time final): no significant change of signal
